Reference: ChEMBL document CHEMBL1201862, “PubChem BioAssay data set” (2004)
Calls of active or inactive are those of the source.

How the values were obtained:
[1] = biological target: Glyceraldehyde-3-phosphate dehydrogenase (Homo sapiens, UniProt P04406)
[2] = HEK-293T cell viability reduction – luminescence, B-cell screen hits, cytotoxicity control for BCR NF-kB inhibitor project, dose response (AID 489021); assay type: functional, cell-based;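 further: HEK-293T cells carrying an NF-kB luciferase reporter; cells exposed to compound for about 14 hours before viability readout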
[3] = tested on: HT-1080; experiment: HT1080 cell viability loss – fluorescence readout (AID 620); assay type: functional, cell-based; settings: Homo sapiens
[4] = biological target: T1, Luciferin 4-monooxygenase (Photinus pyralis, UniProt P08659); experiment: Counter Screen for Luciferase-based Assay Positives. [Related pubchem assays: 620, 618, 411 ]
T1 sequence (P08659 whole entry): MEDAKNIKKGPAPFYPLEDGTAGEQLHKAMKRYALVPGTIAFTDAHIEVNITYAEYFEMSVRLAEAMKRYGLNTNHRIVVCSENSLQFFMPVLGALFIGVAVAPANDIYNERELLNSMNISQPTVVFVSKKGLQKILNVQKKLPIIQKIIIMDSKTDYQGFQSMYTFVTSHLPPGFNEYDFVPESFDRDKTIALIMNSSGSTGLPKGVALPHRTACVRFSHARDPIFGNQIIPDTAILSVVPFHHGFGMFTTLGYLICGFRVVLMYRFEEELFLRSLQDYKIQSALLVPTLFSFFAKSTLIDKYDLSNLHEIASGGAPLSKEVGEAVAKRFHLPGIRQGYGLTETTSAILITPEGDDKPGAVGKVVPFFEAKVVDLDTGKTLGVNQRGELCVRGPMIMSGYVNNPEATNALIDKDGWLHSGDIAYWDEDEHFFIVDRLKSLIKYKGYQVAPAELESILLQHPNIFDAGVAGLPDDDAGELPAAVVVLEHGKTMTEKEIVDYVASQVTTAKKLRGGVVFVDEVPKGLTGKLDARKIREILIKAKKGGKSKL

[5] = cells
[6] = biological target: DNA dC->dU-editing enzyme APOBEC-3A (Homo sapiens, UniProt P31941); experiment: A3A deaminase inhibition for selectivity – biochemical, dose response (AID 504722); assay type: functional
Chain of DNA dC->dU-editing enzyme APOBEC-3A (P31941 whole entry): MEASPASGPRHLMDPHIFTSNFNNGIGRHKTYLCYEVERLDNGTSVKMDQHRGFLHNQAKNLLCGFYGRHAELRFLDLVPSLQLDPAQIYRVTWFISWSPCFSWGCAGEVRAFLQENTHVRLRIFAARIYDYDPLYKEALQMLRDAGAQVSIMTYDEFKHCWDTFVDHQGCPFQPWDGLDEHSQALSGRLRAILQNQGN

[7] = biological target: DNA dC->dU-editing enzyme APOBEC-3G (Homo sapiens, UniProt Q9HC16); experiment: Dose Response confirmation of small molecule APOBEC3G DNA Deaminase Inhibitors via a fluorescence-based single-stranded DNA deaminase assay. [Related pubchem assays (depositor defined):AID493012, AID493028]; assay type: functional
Chain of DNA dC->dU-editing enzyme APOBEC-3G (Q9HC16 whole entry): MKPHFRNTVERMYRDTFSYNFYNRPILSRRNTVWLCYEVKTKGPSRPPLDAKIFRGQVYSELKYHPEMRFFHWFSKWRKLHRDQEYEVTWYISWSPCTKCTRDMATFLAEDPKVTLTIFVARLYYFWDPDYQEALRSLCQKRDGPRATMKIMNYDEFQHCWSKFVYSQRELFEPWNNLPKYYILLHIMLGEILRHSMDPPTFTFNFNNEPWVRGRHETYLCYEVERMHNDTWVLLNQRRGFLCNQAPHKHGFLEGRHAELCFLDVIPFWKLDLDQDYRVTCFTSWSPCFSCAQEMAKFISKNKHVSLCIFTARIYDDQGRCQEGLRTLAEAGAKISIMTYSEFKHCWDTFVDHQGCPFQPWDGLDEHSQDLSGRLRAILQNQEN

[8] = biological target: T2, Heat shock factor protein 1 (Mus musculus, UniProt P38532); experiment: decrease of HSF1-responsive luciferase luminescence – cell-based, NIH3T3, dose retest, confirmation (AID 2382); assay type: functional;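 further: NIH3T3 fibroblasts with HSF1-driven luciferase reporter stressed by proteasome inhibitor MG132; luminescence from HSF1-driven luciferase expression after 8 hours of MG132 stress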
T2 sequence (P38532 whole entry): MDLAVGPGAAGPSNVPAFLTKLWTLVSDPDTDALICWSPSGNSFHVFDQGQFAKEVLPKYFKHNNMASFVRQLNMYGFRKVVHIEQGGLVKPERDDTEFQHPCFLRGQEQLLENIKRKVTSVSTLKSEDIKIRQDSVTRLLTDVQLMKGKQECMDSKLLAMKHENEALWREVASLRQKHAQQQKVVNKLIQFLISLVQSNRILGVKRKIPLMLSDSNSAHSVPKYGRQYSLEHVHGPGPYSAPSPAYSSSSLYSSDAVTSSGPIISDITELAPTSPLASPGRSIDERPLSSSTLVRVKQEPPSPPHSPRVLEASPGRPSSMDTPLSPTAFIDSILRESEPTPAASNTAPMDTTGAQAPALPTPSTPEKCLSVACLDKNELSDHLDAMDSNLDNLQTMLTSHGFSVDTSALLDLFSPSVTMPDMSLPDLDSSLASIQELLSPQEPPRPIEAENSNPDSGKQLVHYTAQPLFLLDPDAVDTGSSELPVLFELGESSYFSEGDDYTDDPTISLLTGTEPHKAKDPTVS

[9] = Luminescence Cell-Based Dose Response HTS to Identify Inhibitors of 5'UTR Stem-Loop Driven Prion Protein mRNA Translation in H4 Neuroglioblastoma Cells. [Related pubchem assays: 1827 (Project Summary), 1813 (Primary HTS)]; assay type: functional
[10] = off-target signal loss in HeLa-CEM21 co-culture – HeLa F-luc CTL cells, cherry-picked, counter-screen for HIV-1 Env fusion inhibitor project, dose response (AID 652040); assay type: functional, cell-based;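 further: potency for signal decrease marking cytotoxic or nonspecific inhibition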
[11] = alpha-synuclein stem-loop luciferase translation blockers – H4 neuroglioma cells, luminescence, confirmation (AID 1988); assay type: functional, cell-based
[12] = luciferase reporter signal suppression in cells – H4 neuroglioma cells, luminescence, dose response (AID 1990); assay type: functional, cell-based
[13] = biological target: Glucose-6-phosphate 1-dehydrogenase (Homo sapiens, UniProt P11413); experiment: inhibition of Homo sapiens G6PD, dose series – biochemical, fluorescence, selectivity assay for P. falciparum G6PD inhibitor project, dose response (AID 504792); assay type: functional
Chain of Glucose-6-phosphate 1-dehydrogenase (P11413 whole entry): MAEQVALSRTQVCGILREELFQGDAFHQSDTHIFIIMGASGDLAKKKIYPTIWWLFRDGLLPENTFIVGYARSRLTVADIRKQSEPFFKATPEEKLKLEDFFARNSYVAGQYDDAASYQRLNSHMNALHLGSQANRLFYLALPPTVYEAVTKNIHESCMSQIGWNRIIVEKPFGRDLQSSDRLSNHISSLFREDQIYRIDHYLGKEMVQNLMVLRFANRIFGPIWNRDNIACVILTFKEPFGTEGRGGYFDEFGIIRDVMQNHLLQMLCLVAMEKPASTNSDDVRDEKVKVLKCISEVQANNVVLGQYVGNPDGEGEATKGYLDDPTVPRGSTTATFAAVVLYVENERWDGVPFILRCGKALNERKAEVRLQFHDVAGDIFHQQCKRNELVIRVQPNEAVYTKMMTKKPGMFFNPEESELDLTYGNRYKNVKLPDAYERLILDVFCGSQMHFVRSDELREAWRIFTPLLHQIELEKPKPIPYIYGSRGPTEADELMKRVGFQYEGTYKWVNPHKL

[14] = biological target: T1, Luciferin 4-monooxygenase; experiment: inhibition of purified Photinus pyralis luciferase – biochemical, luminescence, dose response (AID 1891)
[15] = biological target: T3, Corticotropin-releasing factor receptor 2/Corticotropin-releasing factor-binding protein (Homo sapiens, UniProt P24387+Q13324); experiment: activators of CRF receptor 2 with binding protein – uHTS hits, confirmation (AID 602473); assay type: functional; settings: read-out: EC50_Mean
T3 sequence (Q13324 whole entry): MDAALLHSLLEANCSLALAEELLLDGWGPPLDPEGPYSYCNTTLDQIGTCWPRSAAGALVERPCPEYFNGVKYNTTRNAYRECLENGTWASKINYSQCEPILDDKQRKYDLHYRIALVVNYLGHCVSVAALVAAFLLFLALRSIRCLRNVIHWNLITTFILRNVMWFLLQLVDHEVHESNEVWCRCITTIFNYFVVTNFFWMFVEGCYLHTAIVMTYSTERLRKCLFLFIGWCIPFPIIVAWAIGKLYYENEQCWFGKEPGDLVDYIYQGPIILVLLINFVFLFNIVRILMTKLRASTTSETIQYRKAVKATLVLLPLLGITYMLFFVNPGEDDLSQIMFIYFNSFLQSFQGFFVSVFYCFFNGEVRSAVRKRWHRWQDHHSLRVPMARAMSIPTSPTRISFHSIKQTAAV
T3 sequence (P24387 whole entry): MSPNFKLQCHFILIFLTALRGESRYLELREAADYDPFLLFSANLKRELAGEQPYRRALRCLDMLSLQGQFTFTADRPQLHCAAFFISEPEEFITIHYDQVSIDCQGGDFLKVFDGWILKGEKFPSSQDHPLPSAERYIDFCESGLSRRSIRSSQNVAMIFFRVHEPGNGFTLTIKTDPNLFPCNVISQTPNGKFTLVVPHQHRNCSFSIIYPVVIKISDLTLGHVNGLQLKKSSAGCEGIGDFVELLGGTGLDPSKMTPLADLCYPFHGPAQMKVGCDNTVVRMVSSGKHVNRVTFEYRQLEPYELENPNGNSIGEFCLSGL

[16] = biological target: T4, Short transient receptor potential channel 4 (Mus musculus, UniProt Q9QUQ5); experiment: block of DAMGO-driven TRPC4 calcium entry – cell-based, HEK293 TRPC4/mu-opioid, Fluo-4 calcium, dose response (AID 434942); assay type: functional;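 further: potency of inhibitors blocking the TRPC4 calcium response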
T4 sequence (Q9QUQ5 whole entry): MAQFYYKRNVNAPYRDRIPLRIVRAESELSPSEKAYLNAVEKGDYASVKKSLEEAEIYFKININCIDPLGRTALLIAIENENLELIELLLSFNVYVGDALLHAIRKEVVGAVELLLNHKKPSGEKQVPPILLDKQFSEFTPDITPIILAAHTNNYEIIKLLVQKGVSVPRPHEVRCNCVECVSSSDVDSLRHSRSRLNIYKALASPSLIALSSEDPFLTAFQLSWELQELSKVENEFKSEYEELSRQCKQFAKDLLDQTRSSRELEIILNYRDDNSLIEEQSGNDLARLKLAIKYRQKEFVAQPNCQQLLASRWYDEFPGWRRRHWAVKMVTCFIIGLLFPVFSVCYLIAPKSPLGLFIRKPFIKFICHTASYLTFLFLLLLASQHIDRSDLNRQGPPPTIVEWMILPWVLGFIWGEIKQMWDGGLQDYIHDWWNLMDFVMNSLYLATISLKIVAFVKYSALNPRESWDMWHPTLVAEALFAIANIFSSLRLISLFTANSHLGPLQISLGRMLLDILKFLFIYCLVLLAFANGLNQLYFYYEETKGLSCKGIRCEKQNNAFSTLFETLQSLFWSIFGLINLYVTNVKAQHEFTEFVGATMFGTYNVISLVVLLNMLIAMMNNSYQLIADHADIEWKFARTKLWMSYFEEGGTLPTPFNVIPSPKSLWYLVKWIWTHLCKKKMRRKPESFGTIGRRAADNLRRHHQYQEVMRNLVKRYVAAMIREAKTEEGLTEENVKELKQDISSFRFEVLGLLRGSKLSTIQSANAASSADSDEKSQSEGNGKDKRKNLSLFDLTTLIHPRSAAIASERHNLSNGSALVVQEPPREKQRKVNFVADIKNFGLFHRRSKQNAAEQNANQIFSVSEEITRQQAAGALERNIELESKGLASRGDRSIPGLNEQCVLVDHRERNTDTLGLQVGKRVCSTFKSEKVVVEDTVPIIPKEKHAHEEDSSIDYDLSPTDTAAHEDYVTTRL

[17] = biological target: T3, Corticotropin-releasing factor receptor 2/Corticotropin-releasing factor-binding protein; experiment: Dose Response confirmation of uHTS hits for small molecule antagonists of the CRF-binding protein and CRF-R2 receptor complex.; assay type: functional; settings: read-out: IC50_Mean
[18] = viability of uninfected HEp-2 cells – cell-based, HTS, cytotoxicity control for RSV inhibitor project, dose response (AID 2410); assay type: functional; settings: human respiratory syncytial virus
[19] = biological target: Eukaryotic translation initiation factor 4E (Mus musculus, UniProt P63073); experiment: blockers of eIF4G binding by eIF4E – biochemical, TR-FRET, dose response (AID 855); assay type: functional;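 further: potency for disrupting eIF4E binding to eIF4GI seen as loss of FRET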
Chain of Eukaryotic translation initiation factor 4E (P63073 whole entry): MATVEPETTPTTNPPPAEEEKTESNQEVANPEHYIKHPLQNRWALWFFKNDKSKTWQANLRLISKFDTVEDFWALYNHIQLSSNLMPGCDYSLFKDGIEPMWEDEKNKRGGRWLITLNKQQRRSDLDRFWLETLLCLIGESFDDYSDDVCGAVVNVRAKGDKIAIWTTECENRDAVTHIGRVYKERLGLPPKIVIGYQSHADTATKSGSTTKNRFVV

[20] = biological target: Induced myeloid leukemia cell differentiation protein Mcl-1 (Homo sapiens, UniProt Q07820); assay type: functional
Chain of Induced myeloid leukemia cell differentiation protein Mcl-1 (Q07820 whole entry): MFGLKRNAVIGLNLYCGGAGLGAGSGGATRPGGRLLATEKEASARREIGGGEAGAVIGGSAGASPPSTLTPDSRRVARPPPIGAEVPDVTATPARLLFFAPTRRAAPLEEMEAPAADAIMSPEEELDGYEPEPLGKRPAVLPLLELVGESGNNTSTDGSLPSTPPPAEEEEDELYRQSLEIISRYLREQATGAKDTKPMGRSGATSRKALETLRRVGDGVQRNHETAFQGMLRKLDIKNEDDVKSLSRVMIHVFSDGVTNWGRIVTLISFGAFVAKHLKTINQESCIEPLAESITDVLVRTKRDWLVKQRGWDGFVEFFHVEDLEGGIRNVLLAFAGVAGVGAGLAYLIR

[21] = biological target: T5, Coagulation factor XII (Homo sapiens, UniProt P00748); assay type: functional;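 further: activated factor XIIa alpha cleaving a fluorogenic AMC peptide substrate; inhibitor potency from loss of enzyme activity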
T5 sequence (P00748 whole entry): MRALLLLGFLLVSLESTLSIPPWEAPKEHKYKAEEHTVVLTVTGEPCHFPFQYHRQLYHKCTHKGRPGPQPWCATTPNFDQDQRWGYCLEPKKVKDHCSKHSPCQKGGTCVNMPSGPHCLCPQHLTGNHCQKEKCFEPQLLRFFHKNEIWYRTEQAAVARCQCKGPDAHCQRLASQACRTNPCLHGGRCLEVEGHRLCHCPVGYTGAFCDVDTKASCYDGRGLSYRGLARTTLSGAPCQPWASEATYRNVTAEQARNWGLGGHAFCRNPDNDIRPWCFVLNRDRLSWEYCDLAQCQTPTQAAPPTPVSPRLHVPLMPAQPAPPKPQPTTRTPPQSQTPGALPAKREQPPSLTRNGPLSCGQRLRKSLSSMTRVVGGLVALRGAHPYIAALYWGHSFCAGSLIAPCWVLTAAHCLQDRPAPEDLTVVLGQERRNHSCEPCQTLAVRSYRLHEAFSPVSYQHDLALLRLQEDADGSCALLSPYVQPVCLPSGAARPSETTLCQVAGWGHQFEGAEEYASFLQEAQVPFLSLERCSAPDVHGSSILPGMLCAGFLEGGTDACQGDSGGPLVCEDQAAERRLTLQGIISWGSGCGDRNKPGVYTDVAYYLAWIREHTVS

[22] = P. falciparum Dd2 growth inhibitors, dose response, SYBR Green, cherry-picked samples (AID 1159567); assay type: functional, cell-based
[23] = growth inhibition of yeast DHODH-expressing 3D7 parasites – SYBR Green, dry powder samples, dose response (AID 1159570); assay type: functional, cell-based;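 further: parasite growth measured after 72 hours of compound exposure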
[24] = growth inhibition of PfATP4-mutant resistant parasites – NITD609-resistant line, SYBR Green, dry powder, dose response (AID 1159571); assay type: functional, cell-based;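 further: parasites synchronized at ring stage by sorbitol before testing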
[25] = Dd2 malaria parasite growth inhibition potency – SYBR Green, dry powder samples, dose response (AID 1159566); assay type: functional, cell-based;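 further: potency for growth inhibition with lower SYBR green DNA signal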

Chain of Glyceraldehyde-3-phosphate dehydrogenase (P04406 whole entry): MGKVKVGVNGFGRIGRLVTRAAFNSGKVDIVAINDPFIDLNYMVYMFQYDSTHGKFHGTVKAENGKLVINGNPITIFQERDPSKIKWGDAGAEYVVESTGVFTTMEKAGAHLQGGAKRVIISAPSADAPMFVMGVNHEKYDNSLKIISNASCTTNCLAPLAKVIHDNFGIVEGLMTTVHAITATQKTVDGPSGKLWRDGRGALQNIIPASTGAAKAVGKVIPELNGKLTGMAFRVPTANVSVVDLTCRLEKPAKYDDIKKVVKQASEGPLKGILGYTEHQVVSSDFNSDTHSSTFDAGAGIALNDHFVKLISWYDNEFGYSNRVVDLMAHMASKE

## Cc1ccoc1C(=O)Nc1ccc(CC(=O)O)cc1
[1]
  IC50: > 100 µM (not active)
[2]
  IC50: > 80 µM (inactive)
[3]
  EC50: > 50 µM (not active)
[4]
  EC50: 1.12 µM (active)

## COCCn1c(-c2ccc(Cl)cc2Cl)nc2c(c(=O)c3ccccc3n2C)c1=O
[5]
  IC50: > 50 µM (active)

## CC1(C)Cc2ccccc2-c2n[nH]c(=S)n21
[6]
  IC50: > 100 µM (inactive)
[7]
  IC50: 4.33 µM (active)
[8]
  EC50: > 195 µM (not active)

## COc1ccc(OC)c(-c2cc(C(=O)Nc3c(C)nn(Cc4ccc(Cl)cc4)c3C)no2)c1
[9]
  EC50: 19.5 µM (active)
[10]
  AC50: > 70 µM (inactive)
[11]
  EC50: 13.9 µM (active)
[12]
  EC50: 13.6 µM (active)

## Cc1[nH]c(=S)c(C#N)c(C)c1CCC#N
[13]
  IC50: > 80 µM (inactive)
[6]
  IC50: > 100 µM (inactive)
[14]
  EC50: > 112 µM (not active)
[7]
  IC50: 9.7 µM (active)

## Cc1nn(-c2cccc(Cl)c2)c2nc(C(F)(F)F)[nH]c(=O)c12
[15]
  EC50: > 53 µM (inactive)
[16]
  EC50: 3.35 µM (active)
[17]
  IC50: 2.6 µM (active)

## O=C(Nc1cccc(S(=O)(=O)Nc2ccccc2F)c1)c1ccc2ccccc2n1
[6]
  IC50: > 100 µM (inactive)
[7]
  IC50: 15.6 µM (active)

## CCOC(=O)C1(Cc2cccc(OC)c2)CCN(Cc2cccn2-c2nccs2)CC1
[18]
  CC50: > 50 µM (active)
[5]
  IC50: 10.2 µM (active)

## CCNC(=O)C1=C(O)c2sccc2N(C)S1(=O)=O
[19]
  IC50: 50 µM (inactive)

## Fc1cccc(-c2n[nH]c(=S)n2-c2ccccc2)c1
[6]
  IC50: > 100 µM (inactive)
[7]
  IC50: 4.26 µM (active)

## Cc1cc(C)nc(NC(=N)Nc2ccc(CC(=O)OC(C)C)cc2)n1
[10]
  AC50: 22.1 µM (active)

## CC(C)C(=O)Nc1ccc(-c2nc3cccnc3o2)cc1
[3]
  EC50: > 50 µM (not active)
[4]
  EC50: < 0.2 µM (active)

## O=C1NC(c2ccc3c(c2)OCO3)Oc2ccccc21 (stereo not drawn)
[19]
  IC50: > 64 µM (inactive)

## Cc1ccccc1CC1(CO)CCCN(Cc2c(C)nn(C)c2Cl)C1 (stereo not drawn)
[18]
  CC50: 49.4 µM (active)
[5]
  IC50: 7.18 µM (active)

## O=C(N/N=C/c1ccc(O)cc1)c1cccc(N/N=C/c2ccc(O)cc2)c1
[20]
  IC50: 6.06 µM (active)

## C/C(=N\NC(=O)c1cccc(N/N=C(\C)c2ccccc2)c1)c1ccccc1
[21]
  IC50: > 50 µM (inactive)

## C[C@@H]1CN([C@@H](C)CO)C(=O)c2cccc(NC(=O)c3ccc(-c4nccs4)cc3)c2O[C@H]1CN(C)Cc1ccc(Cl)c(Cl)c1
[22]
  AC50: 1.7 µM (active)
[23]
  AC50: 1.25 µM (active)
[24]
  AC50: 0.692 µM (active)
[25]
  AC50: 0.922 µM (active)
